Measurements taken from patent US12029755B2, “Carbon monoxide-based therapies and implantable devices for the treatment of vascular disease” (THE REGENTS OF THE UNIVERSITY OF MICHIGAN, priority 2017, dated 2024).

Key:
[1] = tested on: heme oxygenase-1 expression; test: HO-1 expression in sham-operated WT IVC by quantitative RT-PCR and immunoblotting; type: in vivo, mouse; settings: CO exposure (inhaled CO or CORM), sham-operated WT IVC compared with normoxic controls
Description: Also, it was determined that CO exposure (inhaled CO or CORM) induces heme oxygenase-1 expression in sham-operated WT IVC compared with normoxic controls by quantitative RT-PCR and immunoblotting. Therefore, inhaled CO can trigger a venous anti-inflammatory and anti-thrombotic program. Also, whether CO or CORM treatment alone is sufficient to rescue HO-1^−/− mice from exaggerated early venous thrombosis was assessed. HO-1^−/− mice undergo venous stasis or stenosis thrombus induction, followed by CORM or inhaled CO treatment. Thrombus size was measured at the time of expected peak thrombus burden.

[2] = tested on: WT mice; test: IVC ligation (stasis) model of venous thrombosis with inhaled CO exposure; type: in vivo, mouse; settings: for Venous stasis thrombus burden / Vessel wall leukocyte infiltration: 7 d inhaled CO, 250 ppm for 1 hour twice daily, after IVC ligation, vs normoxia-treated controls
Description: Carbon monoxide was focused on for these studies because it is an end product from heme degradation by HO-1.
The effect of CO on large vein thrombogenesis was determined. WT mice undergo venous thrombus induction by stasis or stenosis, followed by exposure to inhaled CO (250 ppm) for one hour twice daily. […] Thrombus burden was assessed as in SA1 indirectly (ultrasound, FIG. 6) and directly (thrombus weight/length), at pre-determined time points after surgery (1 d, 2 d, 7 d, 10 d, 21 d).
The mouse makes an excellent animal model of stasis-induced venous thrombosis. Mice, weighing 20 to 30 g, were anesthetized with an inhalation mixture of isoflurane gas (1.5% to 2%) and oxygen (100%), placed in dorsal recumbency and aseptically prepped for surgery. A midline laparotomy was made, the small bowel was exteriorized from the body cavity and moved slightly to the left of the animal, and then the IVC was directly approached by careful blunt dissection. Blunt dissection was facilitated using a sterile applicator swab and extra delicate half curved tissue forceps. Care was taken in handling mouse tissue due to its fragility. Periodically, the exteriorized bowel was moistened with sterile saline to prevent its desiccation. For consistent thrombus formation (90 to 95%), ligation of the IVC with a 7-0 prolene below the renal veins, ligation of an occasional side venous branch and cauterization of a deep posterior branch was performed if indicated to account for normal variation in anatomy. The laparotomy incision was closed in a 2-layer fashion using a 5-0 nonreactive suture material and VetBond glue (3M). Harvest of the IVC was performed at pre-determined time points.
Inhaled Carbon monoxide exposure: Mice were randomly assigned to the normoxia or carbon monoxide exposure group prior to IVC ligation or stenosis surgery. The carbon monoxide group was exposed to 250 ppm CO at a flow rate of 10 L/min for 1 h twice daily. One cohort of mice received “pre-conditioning” with CO exposure 1 day prior to surgery. To achieve 75% O2, 100% O2 is delivered at a flow rate of 0.5 l/min into a custom-made 1.5-m^3 plastic chamber. Oxygen concentrations were monitored continuously with an oxygen analyzer (Neutronics, Exton, PA), gas lines were filtered with activated charcoal to remove excess ammonia, and calcium chloride used to maintain CO2 levels below 0.05%. A CO analyzer (Ntron model 1100; Neutronics, Exton, PA) were used to monitor CO levels continuously in the chamber.

[3] = tested on: humans; settings: dose up to 500 ppm, clinical trials; cited from earlier work
[4] = tested on: C57B/6J mice; test: IVC flow-restriction (stenosis) model of venous thrombosis; type: in vivo, mouse
Description: To determine whether carbon monoxide-releasing molecules can be used as a therapeutic in prevention of flow-restriction mediated venous thrombosis (a model of venous thrombosis that mimics human venous clot, unlike IVC ligation), mice were injected with CORM-3 (Sigma SML0496, 10 mg/kg intraperitoneal injection) and subjected to IVC flow-restriction to induce thrombosis. Remarkably, CORM-3 treated mice developed no venous thrombus (0%, n=5) compared with controls (48%, n=21. P=0.001).
“Flow restriction” (Stenosis) thrombosis model: Partial IVC stenosis Model of Venous Thrombosis (FIG. 5) This model is a “flow-restriction” (or “stenosis) model in which the lumen is reduced by ˜90%. This model invokes disturbed flow at the stenosis site as a model for turbulent flow in venous valve pockets, where thrombi frequently develop. It also has applications to human venous “impingement” conditions, such as May Thurner syndrome. Mice, weighing 20 to 30 g, were anesthetized using an inhalation mixture of isoflurane gas (1.5%-2%) and oxygen (100%), placed in dorsal recumbence, and the IVC was approached directly via a midline laparotomy utilizing aseptic technique. A 7-0 Prolene suture (Ethicon, Inc. Somerville, NJ) was fastened around the IVC over a blunted 30-gauge needle (which serves as a spacer). […] Mice were humanely euthanized and thrombus formation assessed 2-7 days after laparotomy.

Compound: [C-]#[O+] [CO, carbon monoxide]
- Heme oxygenase-1 expression in IVC [1]: induces
- Venous stasis thrombus burden [2]: reduced
- Vessel wall leukocyte infiltration [2]: reduced
- Venous stasis thrombus burden ([2]; listed as carbon monoxide): profound reduction
- Vessel wall leukocyte infiltration ([2]; listed as carbon monoxide): profound reduction
- Thrombus size at 7 days ([2]; WT mice, thrombus induction by stasis or stenosis, inhaled CO 250 ppm one hour twice daily): robust reduction
- Safety of inhaled CO dose [3]: safe

Compound: NCC(=O)O.[CH+]=O.[CH+]=O.[CH+]=O.[Cl][Ru] [CORM-3, tricarbonylchloro(glycinato)ruthenium (II)]
- Protection from venous thrombus compared with controls ([4]; C57B/6J mice treated with CORM-3, VT induction by IVC flow-restriction): protected from venous thrombus
- Frequency of clot (venous thrombus) ([4]; CORM-3 10 mg/kg intraperitoneal injection, IVC flow-restriction, n=5, controls 48% (n=21)): 0%
